Laboratory results taken from patent US10174011B2, “Heterocyclic compounds, process for preparation of the same and use thereof” (SHANGHAI INSTITUTE OF MATERIA MEDICA, CHINESE ACADEMY OF …, priority 2014, dated 2019).
Like-named read-outs stand apart in the source and are kept apart here.

Key:
[1] = molecular target: human recombinant D2 receptor (Homo sapiens (Human), UniProt P14416); assay: D2 receptor antagonism activity test (inhibition of dopamine-induced decrease of cAMP production, LANCE cAMP 384 Kit); details: read-out: D2 receptor antagonism (IC50, mol/L), HEK293 cells expressing human recombinant D2 receptor, 0.1 nM-10000 nM
[2] = molecular target: human recombinant 5-HT1A receptor (Homo sapiens (Human), UniProt P08908); assay: 5-HT1A receptor agonism activity test (inhibition of cAMP production, LANCE cAMP 384 Kit); assay type: cell-based; details: HEK293 cells expressing human recombinant 5-HT1A receptor; test concentration 0.1 nM-10000 nM; read-out: 5-HT1A receptor agonism (EC50, mol/L)
From the text: Pharmacological Test 1) 5-HT1A Receptor Agonism Activity Test

[3] = molecular target: human recombinant 5-HT2A receptor (Homo sapiens (Human), UniProt P28223); assay: 5-HT2A receptor antagonism activity test (FLIPR Calcium 5 Assay Kit); details: read-out: 5-HT2A receptor antagonism (IC50, mol/L)
[4] = test system: PCP-induced hyperactivity in mice; assay: In vivo efficacy test (PCP-induced high locomotor activity in mice); details: male ICR mice, oral administration 45 minutes before PCP 7 mg/kg i.p.; dose significantly reducing PCP-induced hyperactivity vs model group
Description: 5) In Vivo Efficacy Test (PCP-Induced High Locomotor Activity in Mice)
PCP solution was prepared in a suitable concentration for 7 mg/kg dosage with saline. […] Male ICR mice (18-22 g) were used as test animals. All the test mice were randomly divided into vehicle control group, model control group, positive control group, and treatment group(8 mice per group). Mice of each group were orally administered test compounds or vehicle. After 45 minutes PCP solution was administered (7 mg/kg) through intraperitoneal injection. The mice track after drug or saline administration was recorded and analyzed by the spontaneous, open-field video analysis system. […] The mice track was recorded and analyzed by the spontaneous, open-field video analysis system. The total distance in each group was calculate and expressed as mean+SD and statistical evaluation was performed by one way ANOVA.

[5] = CHO-K1 cells expressing human recombinant 5-HT2A receptor, α-methyl-5-hydroxytryptamine 300 nM, 0.1 nM-10000 nM

Sequence of human recombinant 5-HT2A receptor (P28223 whole entry): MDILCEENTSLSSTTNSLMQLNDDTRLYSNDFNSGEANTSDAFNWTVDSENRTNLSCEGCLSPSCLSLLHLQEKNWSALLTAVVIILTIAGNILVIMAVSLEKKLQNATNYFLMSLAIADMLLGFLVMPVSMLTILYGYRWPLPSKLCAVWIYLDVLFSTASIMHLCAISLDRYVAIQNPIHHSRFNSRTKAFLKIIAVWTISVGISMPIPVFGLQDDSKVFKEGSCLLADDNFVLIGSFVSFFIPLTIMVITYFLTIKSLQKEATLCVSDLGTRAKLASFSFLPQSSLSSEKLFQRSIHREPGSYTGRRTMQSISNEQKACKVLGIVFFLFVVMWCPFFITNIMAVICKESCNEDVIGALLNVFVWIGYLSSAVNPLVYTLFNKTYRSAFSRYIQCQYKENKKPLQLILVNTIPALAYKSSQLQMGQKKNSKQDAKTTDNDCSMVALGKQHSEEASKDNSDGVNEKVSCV
Sequence of human recombinant D2 receptor (P14416 whole entry): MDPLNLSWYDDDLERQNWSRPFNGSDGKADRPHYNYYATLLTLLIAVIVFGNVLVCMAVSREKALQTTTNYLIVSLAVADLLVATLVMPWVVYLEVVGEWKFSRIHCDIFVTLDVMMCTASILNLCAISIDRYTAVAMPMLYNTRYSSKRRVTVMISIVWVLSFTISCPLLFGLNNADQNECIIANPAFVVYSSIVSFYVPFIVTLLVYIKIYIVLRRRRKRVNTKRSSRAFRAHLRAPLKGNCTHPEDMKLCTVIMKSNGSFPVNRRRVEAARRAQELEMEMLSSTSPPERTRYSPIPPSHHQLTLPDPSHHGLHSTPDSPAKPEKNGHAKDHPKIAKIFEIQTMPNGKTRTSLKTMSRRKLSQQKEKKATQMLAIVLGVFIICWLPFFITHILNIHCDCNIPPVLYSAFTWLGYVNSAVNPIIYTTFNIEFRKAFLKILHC
Sequence of human recombinant 5-HT1A receptor (P08908 whole entry): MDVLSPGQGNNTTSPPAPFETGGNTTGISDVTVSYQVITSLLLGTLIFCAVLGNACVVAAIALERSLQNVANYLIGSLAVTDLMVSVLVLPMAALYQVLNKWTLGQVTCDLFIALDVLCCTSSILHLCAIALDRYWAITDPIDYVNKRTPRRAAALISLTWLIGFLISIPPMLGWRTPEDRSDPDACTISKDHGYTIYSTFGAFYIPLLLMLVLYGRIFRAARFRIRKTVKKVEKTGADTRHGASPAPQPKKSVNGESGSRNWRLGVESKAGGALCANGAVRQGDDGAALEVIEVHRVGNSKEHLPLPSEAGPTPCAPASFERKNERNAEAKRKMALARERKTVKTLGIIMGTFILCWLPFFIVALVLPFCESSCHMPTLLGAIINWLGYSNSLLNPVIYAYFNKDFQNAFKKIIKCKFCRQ

SMILES | IC50 [1] [nM] | EC50 [2] [nM] | IC50 [3, 5] [nM] | Effective dose [4] [mg/kg] | IC50 [3] [nM]
O=C1CCc2cc(CCCCN3CCN(c4cccc5sc(F)cc45)CC3)ccc2N1 [Compound of example 74, 6-(4-(4-(2-fluorobenzo[b]thiophen-4-yl)piperazin-1-yl)butyl)-3,4-dihydroquinolin-2(1H)-one] | 1.06 | 20.8 | 874 | 3 | 
O=c1[nH]c2ccc(CCN3CCN(c4cccc5sc(F)cc45)CC3)cc2[nH]1 [Compound of example 77, 5-(2-(4-(2-fluorobenzo[b]thiophen-4-yl)piperazin-1-yl)ethyl)-1H-benzo[d]imidazol-2(3H)-one] | 6.91 | 4.8 | 157 | 3 | 
O=C1COc2ccc(CCN3CCN(c4cc(F)cc5sccc45)CC3)cc2N1 [Compound of example 78, 6-(2-(4-(6-fluorobenzo[b]thiophen-4-yl)piperazin-1-yl)ethyl)-2H-benzo[b][1,4]oxazin-3(4H)-one] | 45.6 | 0.599 | 328 | 3 | 
O=C1Cc2cc(CCN3CCN(c4cccc5sc(F)cc45)CC3)ccc2N1 [Compound of example 79, 5-(2-(4-(2-fluorobenzo[b]thiophen-4-yl)piperazin-1-yl)ethyl)indolin-2-one] | 3.87 | 0.77 |  | 1 | 16.8
Cc1nc2ccc(CCN3CCN(c4cccc5sccc45)CC3)cc2c(=O)[nH]1 [Compound of example 80, 6-(2-(4-(benzo[b]thiophen-4-yl)piperazin-1-yl)ethyl)-2-methylquinazolin-4(3H)-one] | 25.1 | 1.74 | 11.9 | 1 | 
Cl.O=S1(=O)NCCc2ccc(CCN3CCN(c4cccc5sccc45)CC3)cc21 [Compound of example 81, 7-(2-(4-(benzo[b]thiophen-4-yl)piperazin-1-yl)ethyl)-1,1-dioxide-3,4-dihydro-2H-benzo[e][1,2]thiazine hydrochloride] | 14.3 | 1.05 | 1.67 | 1 | 
O=C1Cc2cc(CCN3CCC(c4cccc5sccc45)CC3)ccc2N1 [Compound of example 82, 5-(2-(4-(benzo[b]thiophen-4-yl)piperidin-1-yl)ethyl)indolin-2-one] | 10.9 | 2.8 | 11.5 | 1 | 
O=C1CCc2ccc(CCN3CCC(c4cccc5sccc45)CC3)cc2N1 [Compound of example 83, 7-(2-(4-(benzo[b]thiophen-4-yl)piperidin-1-yl)ethyl)-3,4-dihydroquinolin-2(1H)-one] | 10.4 | 4.91 |  | 1 | 25
O=C1CCc2ccc(CCN3CCN(c4cc(F)cc5sccc45)CC3)cc2N1 [Compound of example 85, 7-(2-(4-(6-fluorobenzo[b]thiophen-4-yl)piperazin-1-yl)ethyl)-3,4-dihydroquinolin-2(1H)-one] | 5.32 | 1.38 |  | 1 | 77.5
Cn1c(=O)[nH]c2cc(CCN3CCN(c4cccc5sccc45)CC3)ccc21 [Compound of example 88, 5-(2-(4-(benzo[b]thiophen-4-yl)piperazin-1-yl)ethyl)-1-methyl-1H-benzo[d]imidazol-2(3H)-one] | 215 | 6.31 | 356 | 1 | 
COc1cc2c(N3CCN(CCc4ccc5c(c4)CCC(=O)N5)CC3)cccc2s1 [Compound of example 89, 6-(2-(4-(2-methoxybenzo[b]thiophen-4-yl)piperazin-1-yl)ethyl)-3,4-dihydroquinolin-2(1H)-one] | 8.06 | 1.29 | 1050 | 1 | 
O=c1ccc2ccc(CCN3CCN(c4cc(F)cc5sccc45)CC3)cc2[nH]1 [Compound of example 102, 7-(2-(4-(6-fluorobenzo[b]thiophen-4-yl)piperazin-1-yl)ethyl)quinolin-2(1H)-one] | 106 | 3.29 | 1900 | 3 | 
O=C1Cc2cc(CCCCN3CCN(c4cccc5sccc45)CC3)ccc2N1 [Compound of example 112, 5-(4-(4-(benzo[b]thiophen-4-yl)piperazin-1-yl)butyl)indolin-2-one] | 28.1 | 34.6 | 257 | 1 | 
O=C1COc2ccc(CCCCN3CCN(c4cccc5sccc45)CC3)cc2N1 [Compound of example 137, 6-(4-(4-(benzo[b]thiophen-4-yl)piperazin-1-yl)butyl)-2H-benzo[b][1,4]oxazin-3(4H)-one] | 30.2 | 1.81 | 711 | 3 | 
